Measured values as given in patent publication US20260053792A1, “POLYSUBSTITUTED TETRAHYDROISOQUINOLINE COMPOUNDS, METHOD FOR PREPARING SAME, PHARMACEUTICAL COMPOSITION THEREOF, AND USE THEREOF” (SHANGHAI INSTITUTE OF MATERIA MEDICA, CHINESE ACADEMY OF …, priority 2022, published 2026).
Where two headings read alike, the source gives them in different places.

Assay: Tissue distribution of compound A26 in mice (plasma / cerebrospinal fluid drug concentration)
Assay type: in vivo
Conditions: for Kp at 0.25 h / Kp at 0.5 h / concentration at 15 min / concentration at 30 min: mouse; for Kp at 0.25 h / Kp at 0.5 h: brain/plasma, read-out: Brain to plasma drug concentration ratio (Cbrain/Cplasma); for Kp at 0.25 h / concentration at 15 min: 15 min; for Kp at 0.5 h / concentration at 30 min: 30 min
Procedure: The drug concentrations in plasma or cerebrospinal fluid at two time points of 15 minutes and 30 minutes under three administration routes: oral (20 mg/kg), intraperitoneal injection (10 mg/kg), and intravenous injection (5 mg/kg) were measured.

[1] = cerebrospinal fluid, IP 10 mg/kg, read-out: cerebrospinal fluid
[2] = cerebrospinal fluid, IV 5 mg/kg, read-out: cerebrospinal fluid
[3] = cerebrospinal fluid, PO 20 mg/kg, read-out: cerebrospinal fluid
[4] = plasma, IP 10 mg/kg, read-out: Cardiac plasma
[5] = plasma, IV 5 mg/kg, read-out: Cardiac plasma
[6] = plasma, PO 20 mg/kg, read-out: Cardiac plasma

COc1cc2c(cc1OC)C(CCc1c[nH]c3ccccc13)N(CC1CCOCC1)CC2 (stereo not shown) [Compound A26, 1-(2-(1H-indol-3-yl)ethyl)-6,7-dimethoxy-2-((tetrahydro-2H-pyran-4-yl)methyl)-1,2,3,4-tetrahydroisoquinoline]
blood-brain barrier penetration ability and brain targeting property (conclusion from brain/plasma ratios): good | Kp at 0.25 h (IP 10 mg/kg): 2.12 | Kp at 0.5 h (IP 10 mg/kg): 1.91 | Kp at 0.25 h (IV 5 mg/kg): 3.3 | Kp at 0.5 h (IV 5 mg/kg): 2.2 | Kp at 0.25 h (PO 20 mg/kg): 3.4 | Kp at 0.5 h (PO 20 mg/kg): 1.6 | concentration at 15 min [1]: 665 ± 49 ng/g | concentration at 30 min [1]: 355 ± 106 ng/g | concentration at 15 min [2]: 1560 ± 245 ng/g | concentration at 30 min [2]: 292 ± 69 ng/g | concentration at 15 min [3]: 224 ± 363 ng/g | concentration at 30 min [3]: 32.4 ± 11.9 ng/g | concentration at 15 min [4]: 313 ± 15 ng/mL | concentration at 30 min [4]: 186 ± 57 ng/mL | concentration at 15 min [5]: 466 ± 85 ng/mL | concentration at 30 min [5]: 135 ± 47 ng/mL | concentration at 15 min [6]: 65.3 ± 94.7 ng/mL | concentration at 30 min [6]: 20.7 ± 6.1 ng/mL
